Test system: 186277-243-T-J2-PDC complex spheroid viability
Experiment: Anticancer human tumor 186277-243-T-J2-PDC patient-derived colon adenocarcinoma cell line growth inhibition [POLQ]
Settings: for IC50: curve of first compound; for viability, T/C: stronger effect = lower value
In short: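 PDC + HUVEC + MSC complex spheroids; POLQ inhibitors ± partner drugs; top conc. at/near clinical Cmax, else 10 microM (SN-38 1 microM), half-log dilutions; 37 degrees C, 5% CO2.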

[1] = second compound 0.0316 µM, first compound 0.0316 µM
[2] = second compound 0.0316 µM, first compound 0.1 µM
[3] = second compound 0.0316 µM, first compound 0.316 µM
[4] = second compound 0.0316 µM, first compound 1 µM
[5] = second compound 0.0316 µM, first compound 3.16 µM
[6] = second compound 0.0316 µM, first compound 10 µM
[7] = second compound 0.1 µM, first compound 0.0316 µM
[8] = second compound 0.1 µM, first compound 0.1 µM
[9] = second compound 0.1 µM, first compound 0.316 µM
[10] = second compound 0.1 µM, first compound 1 µM
[11] = second compound 0.1 µM, first compound 3.16 µM
[12] = second compound 0.1 µM, first compound 10 µM
[13] = second compound 0.316 µM, first compound 0.0316 µM
[14] = second compound 0.316 µM, first compound 0.1 µM
[15] = second compound 0.316 µM, first compound 0.316 µM
[16] = second compound 0.316 µM, first compound 1 µM
[17] = second compound 0.316 µM, first compound 3.16 µM
[18] = second compound 0.316 µM, first compound 10 µM
[19] = second compound 1 µM, first compound 0.0316 µM
[20] = second compound 1 µM, first compound 0.1 µM
[21] = second compound 1 µM, first compound 0.316 µM
[22] = second compound 1 µM, first compound 1 µM
[23] = second compound 1 µM, first compound 3.16 µM
[24] = second compound 1 µM, first compound 10 µM
[25] = second compound 3.16 µM, first compound 0.0316 µM
[26] = second compound 3.16 µM, first compound 0.1 µM
[27] = second compound 3.16 µM, first compound 0.316 µM
[28] = second compound 3.16 µM, first compound 1 µM
[29] = second compound 3.16 µM, first compound 3.16 µM
[30] = second compound 3.16 µM, first compound 10 µM
[31] = second compound 10 µM, first compound 0.0316 µM
[32] = second compound 10 µM, first compound 0.1 µM
[33] = second compound 10 µM, first compound 0.316 µM
[34] = second compound 10 µM, first compound 1 µM
[35] = second compound 10 µM, first compound 3.16 µM
[36] = second compound 10 µM, first compound 10 µM
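Note: spheroids exposed to compounds for seven days.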
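Throughout, for viability, T/C: 100% = DMSO vehicle control viability.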

SMILES: COc1cc(C2c3cc4c(cc3C(OC3OC5COC(C)OC5C(O)C3O)C3COC(=O)C23)OCO4)cc(OC)c1O (stereo unspecified) + Nc1ccc(C#CCN(C(=O)Cc2ncc(C(F)(F)F)cc2C(F)(F)F)c2ccc(F)cc2)nn1
- IC50 (second compound 0.0316 µM): 4.57 µM
- IC50 (second compound 0.1 µM): 3.96 µM
- IC50 (second compound 0.316 µM): 3.19 µM
- IC50 (second compound 1 µM): 3.74 µM
- IC50 (second compound 3.16 µM): 3.6 µM
- IC50 (second compound 10 µM): 2.63 µM
- viability, T/C [1]: 96.2%
- viability, T/C [2]: 104%
- viability, T/C [3]: 128%
- viability, T/C [4]: 93.6%
- viability, T/C [5]: 60.5%
- viability, T/C [6]: 29.7%
- viability, T/C [7]: 93.7%
- viability, T/C [8]: 127%
- viability, T/C [9]: 137%
- viability, T/C [10]: 86.9%
- viability, T/C [11]: 59.7%
- viability, T/C [12]: 28.1%
- viability, T/C [13]: 97.8%
- viability, T/C [14]: 106%
- viability, T/C [15]: 135%
- viability, T/C [16]: 80%
- viability, T/C [17]: 55.9%
- viability, T/C [18]: 28.1%
- viability, T/C [19]: 92.2%
- viability, T/C [20]: 115%
- viability, T/C [21]: 123%
- viability, T/C [22]: 79%
- viability, T/C [23]: 58.3%
- viability, T/C [24]: 28.4%
- viability, T/C [25]: 108%
- viability, T/C [26]: 110%
- viability, T/C [27]: 125%
- viability, T/C [28]: 74.6%
- viability, T/C [29]: 59.8%
- viability, T/C [30]: 24.4%
- viability, T/C [31]: 109%
- viability, T/C [32]: 116%
- viability, T/C [33]: 102%
- viability, T/C [34]: 65.9%
- viability, T/C [35]: 52.6%
- viability, T/C [36]: 24.3%

SMILES: CCc1cc2c(N3CCc4c(cc(Cn5ccnc5)cc4-c4cn(C)nc4C(F)(F)F)C3=O)ccnc2c(OC)n1 + COC1C(OC(N)=O)C(O)C(Oc2ccc3c(O)c(NC(=O)c4ccc(O)c(CC=C(C)C)c4)c(=O)oc3c2C)OC1(C)C
- IC50 (second compound 0.0316 µM): > 10 µM
- IC50 (second compound 0.1 µM): > 10 µM
- IC50 (second compound 0.316 µM): > 10 µM
- IC50 (second compound 1 µM): > 10 µM
- IC50 (second compound 3.16 µM): > 10 µM
- IC50 (second compound 10 µM): > 10 µM
- viability, T/C [1]: 94.6%
- viability, T/C [2]: 94%
- viability, T/C [3]: 116%
- viability, T/C [4]: 87.8%
- viability, T/C [5]: 92.6%
- viability, T/C [6]: 74.9%
- viability, T/C [7]: 97.5%
- viability, T/C [8]: 95.2%
- viability, T/C [9]: 111%
- viability, T/C [10]: 104%
- viability, T/C [11]: 86%
- viability, T/C [12]: 74.3%
- viability, T/C [13]: 83.3%
- viability, T/C [14]: 105%
- viability, T/C [15]: 98%
- viability, T/C [16]: 87.8%
- viability, T/C [17]: 89.7%
- viability, T/C [18]: 73.3%
- viability, T/C [19]: 94.1%
- viability, T/C [20]: 103%
- viability, T/C [21]: 86.5%
- viability, T/C [22]: 106%
- viability, T/C [23]: 107%
- viability, T/C [24]: 74.8%
- viability, T/C [25]: 107%
- viability, T/C [26]: 100%
- viability, T/C [27]: 99.1%
- viability, T/C [28]: 93.1%
- viability, T/C [29]: 89.1%
- viability, T/C [30]: 75.5%
- viability, T/C [31]: 101%
- viability, T/C [32]: 99.7%
- viability, T/C [33]: 107%
- viability, T/C [34]: 101%
- viability, T/C [35]: 109%
- viability, T/C [36]: 83.6%

SMILES: C=CC(=O)N1CCN(c2nc(=O)n(-c3c(C)ccnc3C(C)C)c3nc(-c4c(O)cccc4F)c(F)cc23)C(C)C1 (stereo unspecified) + COC1C(OC(N)=O)C(O)C(Oc2ccc3c(O)c(NC(=O)c4ccc(O)c(CC=C(C)C)c4)c(=O)oc3c2C)OC1(C)C
- IC50 (second compound 0.0316 µM): > 10 µM
- IC50 (second compound 0.1 µM): > 10 µM
- IC50 (second compound 0.316 µM): > 10 µM
- IC50 (second compound 1 µM): > 10 µM
- IC50 (second compound 3.16 µM): > 10 µM
- IC50 (second compound 10 µM): > 10 µM
- viability, T/C [1]: 94%
- viability, T/C [2]: 88.7%
- viability, T/C [3]: 111%
- viability, T/C [4]: 88.2%
- viability, T/C [5]: 102%
- viability, T/C [6]: 85.9%
- viability, T/C [7]: 90.2%
- viability, T/C [8]: 91.8%
- viability, T/C [9]: 98.3%
- viability, T/C [10]: 90.2%
- viability, T/C [11]: 87%
- viability, T/C [12]: 97%
- viability, T/C [13]: 98%
- viability, T/C [14]: 102%
- viability, T/C [15]: 91.5%
- viability, T/C [16]: 104%
- viability, T/C [17]: 110%
- viability, T/C [18]: 98.1%
- viability, T/C [19]: 97.3%
- viability, T/C [20]: 93.9%
- viability, T/C [21]: 101%
- viability, T/C [22]: 90.7%
- viability, T/C [23]: 96.6%
- viability, T/C [24]: 97.7%
- viability, T/C [25]: 93.5%
- viability, T/C [26]: 94.5%
- viability, T/C [27]: 99.3%
- viability, T/C [28]: 101%
- viability, T/C [29]: 87.5%
- viability, T/C [30]: 87.3%
- viability, T/C [31]: 92.9%
- viability, T/C [32]: 104%
- viability, T/C [33]: 92.3%
- viability, T/C [34]: 84.5%
- viability, T/C [35]: 116%
- viability, T/C [36]: 83.3%

— PubChem BioAssay AID1963854 (Molecular Pharmacology Branch, DTP, NCI, 2024)
